Assay results as given in patent publication US9107415B2, “2-(substituted-phenyl)-cyclopentane-1,3-dione compounds, and derivatives thereof” (Syngenta Limited, priority 2011, dated 2015).

Columns and labels:
Format in all cases: in vivo
[1] = test system: Echinochloa crus-galli (ECHCG); test: Biological Example 1 glasshouse screen, post-emergence herbicidal activity; conditions: 312 h, application rate 250 g/ha, evaluated after 13 days, read-out: ECHCG percentage phytotoxicity
Protocol: (§1) Seeds of a variety of test species were sown in standard soil in pots. After cultivation for one day (pre-emergence) or after 8 days cultivation (post-emergence) under controlled conditions in a glasshouse (at 24/16°C., day/night; 14 hours light; 65% humidity), the plants were sprayed with an aqueous spray solution derived from the formulation of the “technical”(i.e. unformulated) active ingredient in acetone/water (50:50) solution containing 0.5% Tween 20 (polyoxyethylene sorbitan monolaurate, CAS Registry Number 9005-64-5). The test plants were then grown in a glasshouse under controlled conditions in a glasshouse (at 24/16°C., day/night; 14 hours light; 65% humidity) and watered twice daily. After 13 days for pre- or post-emergence, the test was evaluated visually, and an assessed percentage phytotoxicity score given for each herbicidal application on each plant/weed species (with 100%=total damage to plant; 0%=no damage to plant).
(§2) Test plants: Alopecurus myosuroides (ALOMY), Setaria faberi (SETFA), Echinochloa crus-galli (ECHCG), Solanum nigrum (SOLNI), Amaranthus retroflexus (AMARE) and Ipomoea hederacea (IPOHE). ALOMY, SETFA and ECHCG are grassy monocotyledonous weeds. SOLNI, AMARE and IPOHE are dicotyledonous (broadleaved) weeds.
(§3) Test plants: Lolium perenne (LOLPE), Alopecurus myosuroides (ALOMY), Echinochloa crus-galli (ECHCG), and Avena fatua (AVEFA). All four of these are grassy monocotyledonous weeds.

[2] = test system: Alopecurus myosuroides (ALOMY); test: as above; conditions: 312 h, application rate 250 g/ha, evaluated after 13 days, read-out: ALOMY percentage phytotoxicity
Protocol: as §1, §2, §3

Lolium perenne (LOLPE) [3] = test: as above; conditions: 312 h, application rate 250 g/ha, evaluated after 13 days, read-out: LOLPE percentage phytotoxicity
Protocol: as §1, §3

Avena fatua (AVEFA) [4] = test: as above; conditions: 312 h, application rate 250 g/ha, evaluated after 13 days, read-out: AVEFA percentage phytotoxicity
Protocol: as §1, §3

Lolium perenne (LOLPE) [5] = test: Biological Example 1 glasshouse screen, pre-emergence herbicidal activity; conditions: 312 h, application rate 250 g/ha, evaluated after 13 days, read-out: LOLPE percentage phytotoxicity
Protocol: as §1, §3

Avena fatua (AVEFA) [6] = test: as above; conditions: 312 h, application rate 250 g/ha, evaluated after 13 days, read-out: AVEFA percentage phytotoxicity
Protocol: as §1, §3

[7] = test system: Echinochloa crus-galli (ECHCG); test: as above; conditions: 312 h, application rate 250 g/ha, evaluated after 13 days, read-out: ECHCG percentage phytotoxicity
Protocol: as §1, §2, §3

[8] = test system: Alopecurus myosuroides (ALOMY); test: as above; conditions: 312 h, application rate 250 g/ha, evaluated after 13 days, read-out: ALOMY percentage phytotoxicity
Protocol: as §1, §2, §3

[9] = test system: Lolium perenne, perennial ryegrass (LOLPE); test: Biological Example 3 glasshouse screen, post-emergence herbicidal activity; conditions: 360 h, application rate 30 g/ha, 15 DAA, no safener, read-out: LOLPE percentage phytotoxicity
Protocol: (§4) Test Method: Seeds of a variety of test species are sown in standard soil in pots. After cultivation for one day (pre-emergence) or after 12 days cultivation (post-emergence) under controlled conditions in a glasshouse (warm climate species at 24/18°C., cool climate species at 20/16°C., both at day/night; 16 hours light; 65% humidity), the plants are sprayed with an aqueous spray solution derived from the formulation of the “technical”(i.e. unformulated) active ingredient dissolved in acetone plus IF50, at a 1:20 ratio of “technical”active ingredient to IF50. The IF50 contains about 10.56 weight % Emulsogen EL™(castor oil ethoxylate, CAS Registry number 61791-12-6), about 42.22 weight % N-methylpyrrolidone, and about 42.22 weight % DPG-Monoethyl ether (dipropylene glycol mono-ethyl ether). The adjuvant X-77 (a mixture of alkyl aryl polyoxyethylene glycols and free fatty acids in isopropanol, CAS Registry number 11097-66-8) is added to the aqueous spray solution to form a 0.2% v/v solution, before spraying onto the plants.
(§5) The test plants are then grown in a glasshouse under controlled conditions in a glasshouse (at 24/18°C. or 20/16°C., day/night; 16 hours light; 65% humidity) and watered twice daily. After 15 days after application of the herbicide (15 DAA) (for post-emergence), and after 20 DAA (for pre-emergence), the test is evaluated visually, and an assessed percentage phytotoxicity score is given for each herbicidal application on each plant/weed species (with 100%=total damage to plant; 0%=no damage to plant). […]

[10] = test system: Alopecurus myosuroides, blackgrass (ALOMY); test: as above; conditions: 360 h, application rate 30 g/ha, 15 DAA, no safener, read-out: ALOMY percentage phytotoxicity
Protocol: as §4, §5

[11] = test system: Echinochloa crus galli, barnyardgrass (ECHCG); test: as above; conditions: 360 h, application rate 30 g/ha, 15 DAA, no safener, read-out: ECHCG percentage phytotoxicity
Protocol: as §4, §5

[12] = test system: Avena fatua, wild oats (AVEFA); test: as above; conditions: 360 h, application rate 30 g/ha, 15 DAA, no safener, read-out: AVEFA percentage phytotoxicity
Protocol: as §4, §5

[13] = test system: Triticum aestivum, wheat (TRZAW); test: Biological Example 3 glasshouse screen, post-emergence, phytotoxicity on wheat; conditions: 360 h, application rate 30 g/ha, 15 DAA, no safener, read-out: TRZAW percentage phytotoxicity
Protocol: as §4
The test plants are then grown in a glasshouse under controlled conditions in a glasshouse (at 24/18°C. or 20/16°C., day/night; 16 hours light; 65% humidity) and watered twice daily. After 15 days after application of the herbicide (15 DAA) (for post-emergence), and after 20 DAA (for pre-emergence), the test is evaluated visually, and an assessed percentage phytotoxicity score is given for each herbicidal application on each plant/weed species (with 100%=total damage to plant; 0%=no damage to plant).
These give an approximate indication of the level of selectivity on wheat for these tested compounds, when a herbicide safener such as cloquintocet-mexyl is not used: […]

Structure (SMILES)	pest or weed control at 250 g/ha [1]	pest or weed control at 250 g/ha [2]	pest or weed control at 250 g/ha (Lolium perenne (LOLPE) [3])	pest or weed control at 250 g/ha (Avena fatua (AVEFA) [4])	pest or weed control at 250 g/ha (Lolium perenne (LOLPE) [5])	pest or weed control at 250 g/ha (Avena fatua (AVEFA) [6])	pest or weed control at 250 g/ha [7]	pest or weed control at 250 g/ha [8]	pest or weed control at 30 g/ha [9]	pest or weed control at 30 g/ha [10]	pest or weed control at 30 g/ha [11]	pest or weed control at 30 g/ha [12]	pest or weed control at 30 g/ha [13]
CC#Cc1cc(C)c(C2C(=O)CC(Cc3ccn[nH]3)C2=O)c(C)c1 (stereo not shown) [Compound A-24]	100%	100%	100%	100%	100%	80%	100%	100%	–	–	–	–	–
C#CCC1CC(=O)C(c2c(C)cc(C#CCl)cc2C)C1=O (stereo not shown) [Compound A-25]	100%	90%	100%	100%	100%	70%	100%	90%	–	–	–	–	–
CC#Cc1cc(C)c(C2C(=O)CC(Cc3ccc(C#N)cn3)C2=O)c(CC)c1 (stereo not shown) [Compound A-27]	100%	70%	90%	100%	100%	90%	100%	90%	–	–	–	–	–
CC#Cc1cc(C)c(C2C(=O)CC(Cc3ccc(C#N)cc3)C2=O)c(C)c1 (stereo not shown) [Compound A-28]	100%	90%	90%	80%	90%	70%	100%	70%	–	–	–	–	–
CC#Cc1cc(C)c(C2C(=O)CC(Cc3ccccc3C#N)C2=O)c(C)c1 (stereo not shown) [Compound A-29]	100%	100%	100%	80%	50%	100%	80%	50%	–	–	–	–	–
Cc1cc(-c2ccc(F)cc2)cc(C)c1C1C(=O)CC(Cc2ccccn2)C1=O (stereo not shown) [Compound T71, from WO 2010/069834, reference compound]	–	–	–	–	–	–	–	–	90%	100%	100%	100%	80%
Cc1cc(-c2ccc(F)c(Cl)c2)cc(C)c1C1C(=O)CC(Cc2ccccn2)C1=O (stereo not shown) [reference compound]	–	–	–	–	–	–	–	–	70%	100%	90%	90%	70%
Cc1cc(-c2ccc(F)cc2)cc(C)c1C1C(=O)CC(Cc2ccc(C#N)cn2)C1=O (stereo not shown) [reference compound]	–	–	–	–	–	–	–	–	10%	70%	100%	30%	50%
